According to ChEMBL document CHEMBL4507326, “Data for DCP probe TP-030-2” (2021):

Columns and labels:
[1] = biological target: Ephrin type-B receptor 4 (Homo sapiens, UniProt P54760); assay: EphB4(EPB4LGY1) Takeda global kinase panel
[2] = biological target: D(1B) dopamine receptor (Homo sapiens) (UniProt P21918); assay: Dopamine D5 Eurofins-Panlabs radioligand binding assay; settings: Compound concentration 10.0 uM
[3] = biological target: Eukaryotic translation initiation factor 2-alpha kinase 3 (Homo sapiens, UniProt Q9NZJ5); assay: PERK [PEK(EIK3CGQ1)] Takeda global kinase panel
[4] = biological target: Serine/threonine-protein kinase Chk2 (Homo sapiens, UniProt O96017); assay: CHK2(CHE2LGY1) Takeda global kinase panel
Chain of Serine/threonine-protein kinase Chk2 (O96017 whole entry): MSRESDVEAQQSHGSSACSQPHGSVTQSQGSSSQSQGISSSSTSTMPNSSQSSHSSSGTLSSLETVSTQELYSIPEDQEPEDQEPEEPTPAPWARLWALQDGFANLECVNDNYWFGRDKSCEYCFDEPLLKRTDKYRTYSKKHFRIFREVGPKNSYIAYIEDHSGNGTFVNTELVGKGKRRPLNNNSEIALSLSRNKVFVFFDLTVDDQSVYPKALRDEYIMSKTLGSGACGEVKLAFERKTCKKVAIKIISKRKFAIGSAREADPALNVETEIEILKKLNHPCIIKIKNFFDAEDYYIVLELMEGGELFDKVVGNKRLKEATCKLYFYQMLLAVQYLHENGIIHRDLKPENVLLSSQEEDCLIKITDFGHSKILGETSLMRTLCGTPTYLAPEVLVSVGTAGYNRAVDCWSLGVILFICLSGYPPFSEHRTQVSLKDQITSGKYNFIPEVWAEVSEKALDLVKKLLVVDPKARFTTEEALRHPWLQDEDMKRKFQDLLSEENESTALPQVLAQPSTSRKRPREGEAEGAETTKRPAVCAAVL

[5] = biological target: Cysteinyl leukotriene receptor 1 (Homo sapiens) (UniProt Q9Y271); assay: Inhibition of Leukotriene, Cysteinyl CysLT1 at 10 µM in the Eurofins-Panlabs radioligand binding assay (Eurofins_assay_250460); parameters: ligand concentration 0.3 nM, non-specific ligand with concentration 0.3 µM Leukotriene D4, incubation time 30 min, incubation temperature 25 °C; settings: Compound concentration 10.0 uM
[6] = biological target: Activated CDC42 kinase 1 (Homo sapiens, UniProt Q07912); assay: Ack(TNK2LGF1) Takeda global kinase panel
[7] = biological target: Bone morphogenetic protein receptor type-1A (Homo sapiens, UniProt P36894); assay: BMPR1A(BM1APHRG) Takeda global kinase panel
[8] = biological target: Serine/threonine-protein kinase Nek2 (Homo sapiens, UniProt P51955); assay: Nek2(NEK2LHFA) Takeda global kinase panel
[9] = biological target: Mitogen-activated protein kinase 15 (Homo sapiens, UniProt Q8TD08); assay: ERK7(MP15LGY1) Takeda global kinase panel
[10] = biological target: Mitogen-activated protein kinase 1 (Homo sapiens, UniProt P28482); assay: ERK2(MAP1LGY1) Takeda global kinase panel
[11] = biological target: Muscarinic acetylcholine receptor M2 (Homo sapiens) (UniProt P08172); settings: Compound concentration 10.0 uM
[12] = biological target: Alpha-2A adrenergic receptor (Homo sapiens) (UniProt P08913); settings: Compound concentration 10.0 uM
[13] = biological target: Alpha-1A adrenergic receptor (Homo sapiens) (UniProt P35348); settings: Compound concentration 10.0 uM
[14] = biological target: SRSF protein kinase 3 (Homo sapiens, UniProt Q9UPE1); assay: MSSK1(SRP3MHRL) Takeda global kinase panel
[15] = biological target: Androgen receptor (Homo sapiens) (UniProt P10275); settings: Compound concentration 10.0 uM
[16] = biological target: Serine/threonine-protein kinase Nek8 (Homo sapiens, UniProt Q86SG6); assay: Nek8(NEK8LGRI) Takeda global kinase panel
[17] = biological target: D(2) dopamine receptor (Homo sapiens) (UniProt P14416); settings: Compound concentration 10.0 uM
[18] = biological target: Casein kinase I isoform gamma-1 (Homo sapiens, UniProt Q9HCP0); assay: CK1gamma1(C1G1LGI1) Takeda global kinase panel
[19] = biological target: 5'-AMP-activated protein kinase catalytic subunit alpha-1 (Homo sapiens, UniProt Q13131); assay: AMPKalpha1(PRA1PGF1) Takeda global kinase panel
[20] = biological target: L-type calcium channel, benzothiazepine site (Cav1.2 alpha-1C) (Homo sapiens, UniProt Q13936); assay: Inhibition of Calcium Channel L-Type, Benzothiazepine at 10 µM in the Eurofins-Panlabs radioligand binding assay (Eurofins_assay_214510); parameters: ligand concentration 2 nM, non-specific ligand with concentration 10 µM Diltiazem, incubation time 3h, incubation temperature 4 °C; settings: male, Wistar, rat, rat whole brain preparation, probe [3H] Diltiazem; compound concentration 10 uM; target entry is the homologue from another species
[21] = biological target: Serine/threonine-protein kinase Sgk3 (Homo sapiens, UniProt Q96BR1); assay: SGK3(SGK3LGY1) Takeda global kinase panel
[22] = biological target: Serine/threonine-protein kinase D2 (Homo sapiens, UniProt Q9BZL6); assay: PKD2(PRD2LHY1) Takeda global kinase panel
[23] = biological target: Mitogen-activated protein kinase 6 (Homo sapiens, UniProt Q16659); assay: ERK3(MAP6LHY1) Takeda global kinase panel
[24] = biological target: Protein-tyrosine kinase 2-beta (Homo sapiens, UniProt Q14289); assay: PYK2(PT2BLHF1) Takeda global kinase panel
Chain of Protein-tyrosine kinase 2-beta (Q14289 whole entry): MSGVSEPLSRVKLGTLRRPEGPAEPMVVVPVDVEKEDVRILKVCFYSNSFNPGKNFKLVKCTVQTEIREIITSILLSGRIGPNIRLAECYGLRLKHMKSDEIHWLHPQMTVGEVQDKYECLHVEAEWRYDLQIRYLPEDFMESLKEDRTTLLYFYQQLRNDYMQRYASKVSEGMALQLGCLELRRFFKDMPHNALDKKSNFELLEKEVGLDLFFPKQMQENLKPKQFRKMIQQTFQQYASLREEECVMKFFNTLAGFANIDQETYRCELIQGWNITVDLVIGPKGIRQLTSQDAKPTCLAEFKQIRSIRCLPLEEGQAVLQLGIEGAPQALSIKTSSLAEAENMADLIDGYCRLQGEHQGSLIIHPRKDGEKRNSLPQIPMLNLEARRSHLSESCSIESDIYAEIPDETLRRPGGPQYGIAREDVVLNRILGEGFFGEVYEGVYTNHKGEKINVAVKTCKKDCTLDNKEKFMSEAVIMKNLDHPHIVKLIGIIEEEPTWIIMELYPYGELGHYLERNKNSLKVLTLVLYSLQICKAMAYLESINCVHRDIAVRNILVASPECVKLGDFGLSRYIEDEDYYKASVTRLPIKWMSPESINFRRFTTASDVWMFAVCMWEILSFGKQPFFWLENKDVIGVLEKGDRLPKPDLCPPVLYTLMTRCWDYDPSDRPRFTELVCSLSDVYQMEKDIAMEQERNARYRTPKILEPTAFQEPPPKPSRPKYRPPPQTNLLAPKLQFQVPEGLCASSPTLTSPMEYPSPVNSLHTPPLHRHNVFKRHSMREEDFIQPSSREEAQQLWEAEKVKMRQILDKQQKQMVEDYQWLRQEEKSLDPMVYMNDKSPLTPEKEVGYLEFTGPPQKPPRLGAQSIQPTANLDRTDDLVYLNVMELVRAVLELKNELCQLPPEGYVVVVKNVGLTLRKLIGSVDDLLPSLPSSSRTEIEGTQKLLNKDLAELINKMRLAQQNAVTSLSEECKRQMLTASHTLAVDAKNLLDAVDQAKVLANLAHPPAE

[25] = biological target: Serine/threonine-protein kinase RIO2 (Homo sapiens, UniProt Q9BVS4); assay: RIOK2(RIO2LGF1) Takeda global kinase panel
[26] = biological target: Inhibitor of nuclear factor kappa-B kinase subunit beta (Homo sapiens, UniProt O14920); assay: IKKbeta(IKBBLHY1) Takeda global kinase panel
Chain of Inhibitor of nuclear factor kappa-B kinase subunit beta (O14920 whole entry): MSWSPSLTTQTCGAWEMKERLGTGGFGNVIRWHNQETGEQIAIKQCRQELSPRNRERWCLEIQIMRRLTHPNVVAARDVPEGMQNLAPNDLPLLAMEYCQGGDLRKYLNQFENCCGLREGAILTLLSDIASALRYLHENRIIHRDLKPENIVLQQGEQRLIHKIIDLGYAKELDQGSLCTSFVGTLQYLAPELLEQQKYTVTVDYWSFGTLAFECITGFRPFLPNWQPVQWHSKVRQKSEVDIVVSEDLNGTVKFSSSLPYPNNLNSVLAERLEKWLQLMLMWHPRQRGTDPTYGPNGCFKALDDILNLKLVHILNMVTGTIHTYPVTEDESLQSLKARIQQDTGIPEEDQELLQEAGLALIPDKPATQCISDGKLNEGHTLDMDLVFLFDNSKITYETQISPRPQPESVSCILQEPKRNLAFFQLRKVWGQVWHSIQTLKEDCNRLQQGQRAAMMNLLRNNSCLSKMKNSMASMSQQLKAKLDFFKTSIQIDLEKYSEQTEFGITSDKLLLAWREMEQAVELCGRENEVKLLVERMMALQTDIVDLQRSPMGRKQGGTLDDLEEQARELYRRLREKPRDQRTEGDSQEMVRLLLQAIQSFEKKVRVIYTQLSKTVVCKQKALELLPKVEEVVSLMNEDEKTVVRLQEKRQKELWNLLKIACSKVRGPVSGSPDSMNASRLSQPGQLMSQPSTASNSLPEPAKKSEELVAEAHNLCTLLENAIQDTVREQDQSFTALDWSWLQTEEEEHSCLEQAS

[27] = biological target: Peripheral plasma membrane protein CASK (Homo sapiens, UniProt O14936); assay: CASK(CASKLGY1) Takeda global kinase panel
[28] = biological target: Serine/threonine-protein kinase TNNI3K (Homo sapiens, UniProt Q59H18); assay: HH498(TNNILGY1) Takeda global kinase panel
[29] = biological target: Wee1-like protein kinase (Homo sapiens, UniProt P30291); assay: Wee1(WEE1LGF1) Takeda global kinase panel
Chain of Wee1-like protein kinase (P30291 whole entry): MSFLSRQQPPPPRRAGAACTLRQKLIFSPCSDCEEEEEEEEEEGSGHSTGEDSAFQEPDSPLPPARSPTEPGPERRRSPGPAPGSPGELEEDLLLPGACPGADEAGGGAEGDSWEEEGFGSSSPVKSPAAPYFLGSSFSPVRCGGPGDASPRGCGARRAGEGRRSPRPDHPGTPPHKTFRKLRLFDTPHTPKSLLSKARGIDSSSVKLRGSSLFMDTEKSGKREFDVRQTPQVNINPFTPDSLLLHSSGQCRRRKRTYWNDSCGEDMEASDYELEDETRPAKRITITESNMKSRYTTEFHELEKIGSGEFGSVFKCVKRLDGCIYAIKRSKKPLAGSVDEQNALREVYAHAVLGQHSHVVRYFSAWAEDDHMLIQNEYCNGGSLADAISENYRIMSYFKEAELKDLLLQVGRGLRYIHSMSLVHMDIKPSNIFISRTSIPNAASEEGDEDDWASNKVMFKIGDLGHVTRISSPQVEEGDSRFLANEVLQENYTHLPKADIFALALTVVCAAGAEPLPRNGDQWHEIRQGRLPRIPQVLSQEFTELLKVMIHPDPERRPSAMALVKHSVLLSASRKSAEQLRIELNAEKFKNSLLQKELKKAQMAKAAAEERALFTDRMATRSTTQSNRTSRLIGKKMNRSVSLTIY

[30] = biological target: Cyclin-dependent kinase 3 (Homo sapiens, UniProt Q00526); assay: CDK3(CDK3CGS1) Takeda global kinase panel
[31] = biological target: Tyrosine-protein kinase Lck (Homo sapiens, UniProt P06239); assay: Lck(LCK1LGF1) Takeda global kinase panel
Chain of Tyrosine-protein kinase Lck (P06239 whole entry): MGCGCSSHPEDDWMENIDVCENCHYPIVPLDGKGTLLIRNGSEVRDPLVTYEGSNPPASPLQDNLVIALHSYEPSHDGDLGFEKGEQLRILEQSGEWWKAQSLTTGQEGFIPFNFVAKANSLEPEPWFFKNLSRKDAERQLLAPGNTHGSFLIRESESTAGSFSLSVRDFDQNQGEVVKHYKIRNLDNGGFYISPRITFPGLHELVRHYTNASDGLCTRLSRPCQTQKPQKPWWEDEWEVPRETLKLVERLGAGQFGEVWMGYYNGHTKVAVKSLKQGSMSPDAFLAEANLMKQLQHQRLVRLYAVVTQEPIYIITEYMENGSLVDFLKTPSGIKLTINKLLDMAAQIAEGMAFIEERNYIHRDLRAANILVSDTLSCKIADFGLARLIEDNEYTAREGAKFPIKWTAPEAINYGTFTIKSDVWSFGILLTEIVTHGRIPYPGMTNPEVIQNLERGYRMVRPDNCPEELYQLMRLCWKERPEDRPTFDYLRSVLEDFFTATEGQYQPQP

[32] = biological target: Serine/threonine-protein kinase Nek9 (Homo sapiens, UniProt Q8TD19); assay: Nek9(NEK9LGF1) Takeda global kinase panel
Chain of Serine/threonine-protein kinase Nek9 (Q8TD19 whole entry): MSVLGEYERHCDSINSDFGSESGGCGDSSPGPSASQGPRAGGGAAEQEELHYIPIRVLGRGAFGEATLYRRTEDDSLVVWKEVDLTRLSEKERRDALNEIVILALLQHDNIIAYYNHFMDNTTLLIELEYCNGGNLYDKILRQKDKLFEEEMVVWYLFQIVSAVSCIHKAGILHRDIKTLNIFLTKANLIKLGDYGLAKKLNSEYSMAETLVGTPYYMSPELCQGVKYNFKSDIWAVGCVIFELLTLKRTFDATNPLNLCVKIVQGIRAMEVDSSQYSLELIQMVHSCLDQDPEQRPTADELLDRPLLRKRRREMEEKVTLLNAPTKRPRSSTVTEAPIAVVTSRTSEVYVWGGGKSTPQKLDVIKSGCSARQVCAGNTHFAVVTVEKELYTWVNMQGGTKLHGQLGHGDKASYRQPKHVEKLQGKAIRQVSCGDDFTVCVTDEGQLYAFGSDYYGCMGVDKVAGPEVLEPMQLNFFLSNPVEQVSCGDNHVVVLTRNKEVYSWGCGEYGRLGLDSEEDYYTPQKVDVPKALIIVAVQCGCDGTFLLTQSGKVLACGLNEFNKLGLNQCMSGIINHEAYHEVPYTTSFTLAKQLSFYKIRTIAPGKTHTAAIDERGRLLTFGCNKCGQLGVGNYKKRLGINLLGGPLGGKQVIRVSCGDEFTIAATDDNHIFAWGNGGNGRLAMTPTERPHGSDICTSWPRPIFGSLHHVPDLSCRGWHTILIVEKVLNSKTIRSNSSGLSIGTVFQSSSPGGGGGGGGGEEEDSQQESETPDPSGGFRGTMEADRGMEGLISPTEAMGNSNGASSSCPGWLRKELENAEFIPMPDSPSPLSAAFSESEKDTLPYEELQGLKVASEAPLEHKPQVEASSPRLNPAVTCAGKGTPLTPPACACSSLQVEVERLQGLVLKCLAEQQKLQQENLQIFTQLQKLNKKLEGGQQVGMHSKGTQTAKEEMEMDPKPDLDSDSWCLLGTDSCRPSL

[33] = organism: Rattus norvegicus; assay: Inhibition of Rolipram at 10 µM in the Eurofins-Panlabs radioligand binding assay (Eurofins_assay_268811); type: protein assay; parameters: ligand concentration 1.8 nM; settings: Compound concentration 10.0 uM
[34] = biological target: Endothelin-1 receptor (Homo sapiens) (UniProt P25101); settings: Compound concentration 10.0 uM
[35] = biological target: Serine/threonine-protein kinase PLK3 (Homo sapiens, UniProt Q9H4B4); assay: PLK3(PLK3PHY1) Takeda global kinase panel
[36] = biological target: Interleukin-1 receptor-associated kinase 4 (Homo sapiens, UniProt Q9NWZ3); assay: IRAK4(IRK4LGF1) Takeda global kinase panel
[37] = biological target: B1 bradykinin receptor (Homo sapiens) (UniProt P46663); settings: Compound concentration 10.0 uM
Chain of B1 bradykinin receptor (Homo sapiens) (P46663 whole entry): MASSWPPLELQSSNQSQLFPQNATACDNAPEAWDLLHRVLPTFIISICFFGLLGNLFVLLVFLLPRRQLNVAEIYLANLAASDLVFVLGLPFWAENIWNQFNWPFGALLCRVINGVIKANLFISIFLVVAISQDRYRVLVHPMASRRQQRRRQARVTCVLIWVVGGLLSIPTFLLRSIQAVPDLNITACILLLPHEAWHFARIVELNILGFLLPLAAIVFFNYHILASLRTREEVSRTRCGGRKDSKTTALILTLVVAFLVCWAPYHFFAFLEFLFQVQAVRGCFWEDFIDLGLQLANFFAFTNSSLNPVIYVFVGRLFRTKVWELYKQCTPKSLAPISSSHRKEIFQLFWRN

[38] = biological target: Mitogen-activated protein kinase kinase kinase 11 (Homo sapiens, UniProt Q16584); assay: MLK3(M311LGF1) Takeda global kinase panel
[39] = biological target: Glutamate receptor ionotropic, kainate (Rattus norvegicus) (UniProt P22756+Q01812+P42260+P42264+Q63273); settings: Compound concentration 10.0 uM
[40] = biological target: MAP kinase-activated protein kinase 2 (Homo sapiens, UniProt P49137); assay: MAPKAPK2(MPK2LGRH) Takeda global kinase panel
[41] = biological target: PAS domain-containing serine/threonine-protein kinase (Homo sapiens, UniProt Q96RG2); assay: PASK(PASKPHY1) Takeda global kinase panel
[42] = biological target: Insulin receptor (Homo sapiens, UniProt P06213); assay: InSR(INSRLGY1) Takeda global kinase panel
[43] = biological target: Protein kinase C eta type (Homo sapiens, UniProt P24723); assay: PKCeta(PRKHLGRA) Takeda global kinase panel
[44] = biological target: Alpha-1D adrenergic receptor (Homo sapiens) (UniProt P25100); settings: Compound concentration 10.0 uM

## CN1C(=O)[C@@H](N2CCc3c(nn(Cc4ccccc4)c3Br)C2=O)COc2ccccc21 [TP-030-2]
[1]
  IC50: 1000 nM
[2]
  inhibition: 2%
[3]
  IC50: 1000 nM
[4]
  IC50: 1000 nM
[5]
  inhibition: 5%
[6]
  IC50: 1000 nM
[7]
  IC50: 1000 nM
[8]
  IC50: 1000 nM
[9]
  IC50: 1000 nM
[10]
  IC50: 1000 nM
[11]
  inhibition: 2%
[12]
  inhibition: 43%
[13]
  inhibition: -4.83%
[14]
  IC50: 1000 nM
[15]
  inhibition: 6%
[16]
  IC50: 1000 nM
[17]
  inhibition: 3%
[18]
  IC50: 1000 nM
[19]
  IC50: 1000 nM
[20]
  inhibition at 3 h, 10 µM: 16% (not active)
[21]
  IC50: 1000 nM
[22]
  IC50: 1000 nM
[23]
  IC50: 1000 nM
[24]
  IC50: 1000 nM
[25]
  IC50: 1000 nM
[26]
  IC50: 1000 nM
[27]
  IC50: 1000 nM
[28]
  IC50: 1000 nM
[29]
  IC50: 1000 nM
[30]
  IC50: 1000 nM
[31]
  IC50: 1000 nM
[32]
  IC50: 1000 nM
[33]
  inhibition: 0%
[34]
  inhibition: -3%
[35]
  IC50: 1000 nM
[36]
  IC50: 1000 nM
[37]
  inhibition: 1%
[38]
  IC50: 1000 nM
[39]
  inhibition: 5%
[40]
  IC50: 1000 nM
[41]
  IC50: 1000 nM
[42]
  IC50: 1000 nM
[43]
  IC50: 1000 nM
[44]
  inhibition: 5.52%
